# Calls of active or inactive are those of the source. No cut-off for these calls is given here.
# Experiments:
# [1] = Intrinsic clearance in human liver microsomes
# [2] = Distribution coefficient, log D of the compound; format: physicochemical; conditions: octanol/water
# [3] = target: T1, Mineralocorticoid receptor (Homo sapiens, UniProt P08235)
# T1 sequence (P08235 whole entry): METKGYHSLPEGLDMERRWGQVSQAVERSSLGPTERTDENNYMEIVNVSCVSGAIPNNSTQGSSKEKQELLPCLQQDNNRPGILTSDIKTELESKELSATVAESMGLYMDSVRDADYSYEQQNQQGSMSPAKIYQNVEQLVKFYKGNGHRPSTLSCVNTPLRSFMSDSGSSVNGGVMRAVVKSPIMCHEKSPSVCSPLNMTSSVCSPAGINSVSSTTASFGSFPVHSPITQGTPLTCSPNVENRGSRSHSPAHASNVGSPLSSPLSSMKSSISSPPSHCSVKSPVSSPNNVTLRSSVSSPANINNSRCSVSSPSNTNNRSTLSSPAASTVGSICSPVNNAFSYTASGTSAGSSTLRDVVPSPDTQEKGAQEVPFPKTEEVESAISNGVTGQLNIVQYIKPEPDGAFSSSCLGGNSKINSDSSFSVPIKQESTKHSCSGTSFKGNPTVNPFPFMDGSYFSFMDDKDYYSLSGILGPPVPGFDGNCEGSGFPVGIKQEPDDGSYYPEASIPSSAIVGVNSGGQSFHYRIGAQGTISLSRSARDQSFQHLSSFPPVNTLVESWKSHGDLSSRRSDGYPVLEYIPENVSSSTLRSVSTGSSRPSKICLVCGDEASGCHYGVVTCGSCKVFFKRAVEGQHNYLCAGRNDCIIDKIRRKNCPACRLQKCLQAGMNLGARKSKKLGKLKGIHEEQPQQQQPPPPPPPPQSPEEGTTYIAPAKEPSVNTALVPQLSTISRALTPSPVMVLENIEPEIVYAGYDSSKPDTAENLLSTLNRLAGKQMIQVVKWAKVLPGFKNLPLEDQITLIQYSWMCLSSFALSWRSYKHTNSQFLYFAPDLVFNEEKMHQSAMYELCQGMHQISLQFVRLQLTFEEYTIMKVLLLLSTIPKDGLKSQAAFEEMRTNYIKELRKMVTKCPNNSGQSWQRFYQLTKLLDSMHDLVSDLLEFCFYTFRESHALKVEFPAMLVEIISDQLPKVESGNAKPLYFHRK
# Description: Displacement of [3H]-aldosterone from human GST-tagged MR ligand binding domain after 4 hrs by liquid scintillation counting
# [4] = target: T1, Mineralocorticoid receptor; remark: listed apart in the source
# Description: Antagonist activity at human GAL4-DBD fused MR ligand binding domain transfected in human Huh7 cells co-expressing GAL4-RE-Luc assessed as reduction in aldosterone-induced luciferase activity after 16 hrs in presence of serum by luciferase reporter gene assay
# [5] = Clearance in rat at 1 mg/kg, iv; conditions: in vivo
# [6] = Intrinsic clearance in rat liver microsomes
# Rattus norvegicus = assay: In vivo antagonist activity at MR in Wistar rat assessed as increase in urinary Na+ /K+ ratio at 100 mg/kg, po administered as single dose measured after 2 to 6 hrs post dose; format: functional, organism-based
microsomal CLint [1],logD [2],IC50 [3],IC50 [4],clearance [5],microsomal CLint [6],SMILES,inhibition (Rattus norvegicus)
8.9 µL/min/mg,2.4,1.18 µM,,,,O=C1COc2ccc(N3CCOC[C@H]3c3ccccc3)nc2N1,
8 µL/min/mg,2.5,0.276 µM,0.358 µM,,,COC[C@@H]1CN(c2ccc3c(n2)NC(=O)CO3)[C@H](c2ccccc2)CO1,
15.2 µL/min/mg,3.3,0.086 µM,,,,CC1(C)CN(c2ccc3c(n2)NC(=O)CO3)[C@H](c2ccccc2)CO1,
11.9 µL/min/mg,2.3,0.056 µM,,,,N#CC[C@@H]1CN(c2ccc3c(n2)NC(=O)CO3)[C@H](c2ccccc2)CO1,
,2.7,,,,,C[C@H]1CN(c2ccc3c(n2)NC(=O)CO3)[C@H](c2ccccc2)CO1,
14 µL/min/mg,3.1,0.013 µM,0.033 µM,,,C[C@@H]1CN(c2ccc3c(n2)NC(=O)CO3)[C@H](c2ccccc2F)CO1,
12.6 µL/min/mg,2.5,0.109 µM,,,,C[C@@H]1CN(c2cc3c(cn2)OCC(=O)N3)[C@H](c2ccccc2)CO1,
15.8 µL/min/mg,3.1,0.013 µM,,54 mL/min/kg,377 µL/min/mg,C[C@@H]1CN(c2ccc3c(c2)NC(=O)CO3)[C@H](c2ccccc2)CO1,
14.8 µL/min/mg,1.8,> 10 µM,10 µM,52 mL/min/kg,44 µL/min/mg,O=C1COc2ccc(N3C[C@@H](CO)OC[C@H]3c3ccccc3)nc2N1,
13.9 µL/min/mg,1.9,2.22 µM,,,,C[C@@H]1CN(c2cnc3c(c2)NC(=O)CO3)[C@H](c2ccccc2)CO1,
,,,,,,COC(=O)[C@@H]1CC2=CC(=O)CC[C@]2(C)[C@@]23O[C@@H]2C[C@@]2(C)[C@@H](CC[C@@]24CCC(=O)O4)[C@H]13,Active
8 µL/min/mg,2.7,0.113 µM,,95 mL/min/kg,146 µL/min/mg,C[C@@H]1CN(c2ncc3c(n2)NC(=O)CO3)[C@H](c2ccccc2)CO1,
9.6 µL/min/mg,3.1,,,,,C[C@@H]1CN(c2ccc3c(n2)NC(=O)CO3)[C@H](c2cccc(F)c2)CO1,
8 µL/min/mg,3.2,,,,,C[C@@H]1CN(c2ccc3c(n2)NC(=O)CO3)[C@H](c2ccc(F)cc2)CO1,

# From ChEMBL document CHEMBL4024791, “Identification of Morpholino-2H-pyrido[3,2-b][1,4]oxazin-3(4H)-ones as Nonsteroidal Mineralocorticoid Antagonists” (J Med Chem, 2018)
